Results published in US20120010075A1 (priority 2009, published 2012).
Read-outs that look alike come from different tables or passages of the source.

Columns and labels:
[1] = system: Leptosphaeria nodorum (LEPTNO); assay: In vitro fungitoxicity of hydrazones with and without copper towards Leptosphaeria nodorum (Example 26); format: cell-based; details: 72 h at 25° C.; for inhibition of growth at 0.05 µg/mL: Parastagonospora nodorum, 72 h, read-out: LEPTNO % Inhn. Minus Copper Observed
Phytophthora infestans = format: in vivo, Phytophthora infestans on tomato; details: applied 24 h before inoculation, assessed 7 days after inoculation
[2] = copper-minus medium, test compound Concn. 0.05 μg/mL
[3] = copper-plus medium (CuCl2 10 μM), test compound Concn. 0.05 μg/mL
[4] = hydrazone 50 ppm with 50 μM CuCl2.2H2O, tomato late blight
[5] = compound 0.05 μg/mL, copper-minus medium
[6] = compound 0.05 μg/mL, copper-plus medium (CuCl2.2H2O)
[7] = hydrazone 50 ppm + 50 μM CuCl2.2H2O, tomato

Row | SMILES | inhibition of growth at 0.05 µg/mL [1, 2] [%] | LEPTNO % Inhn. Plus Copper Observed [1, 3] [%] | TLB % Control (Phytophthora infestans; [4]) [%] | melting point [°C] | LEPTNO % Inhn. Minus Copper Observed [1, 5] [%] | LEPTNO % Inhn. Plus Copper Observed [1, 6] [%] | TLB % Control (Phytophthora infestans; [7]) [%] | inhibition of growth at 0.05 µg/mL [1, 5] [%]
1 | C/C(=N\NC(=O)c1cc(Cl)ccc1O)c1cc(Cl)cc(Cl)c1O [Example 490] | 31.5 | 97.0 | 55.0 | 322 to 325 | – | – | – | –
2 | C/C(=N\NC(=O)c1ccc(C)cc1)c1cc(F)cc(F)c1O [Example 575] | 0 | 98.1 | 100.0 | 220 to 222 | – | – | – | –
3 | CC(C)c1ccc(C(=O)N/N=C/c2cc(Cl)cc(Cl)c2O)cc1 [Example 41] | – | – | – | 261 to 263 | 0.0 | 97.2 | 87.0 | –
4 | CC(C)(C)N(/N=C/c1ccccc1O)C(=O)c1ccccc1 [Example 217] | – | – | – | 91 to 104 | – | 92.7 | 0.0 | 0
5 | O=C(N/N=C/c1c(O)cccc1Cl)c1ccccc1C(F)(F)F [Example 407] | 0 | 92.0 | 70.0 | 222 to 226 | – | – | – | –
6 | C/C(=N\NC(=O)c1ccccc1C)c1cc(Br)cc(Br)c1O [Example 540] | 0 | 97.5 | 95.0 | 221 to 222 | – | – | – | –
7 | C/C(=N\NC(=O)c1ccc(Br)cc1)c1cc(Br)ccc1O [Example 517] | 0 | 96.7 | 56.0 | 270 to 275 | – | – | – | –
8 | O=C(N/N=C/c1cc(Cl)ccc1O)c1cc(Cl)ccc1Cl [Example 189] | – | – | – | 185 to 188 | – | 95.9 | 72.7 | 19.2
9 | O=C(N/N=C/c1c(O)ccc(Cl)c1Cl)c1ccccc1 [Example 241] | – | – | – | 273 to 274 | – | 97.0 | 62.7 | 0.5
10 | C/C(=N\NC(=O)c1ccc(C(F)(F)F)cc1)c1cc(Cl)cc(Cl)c1O [Example 470] | 4 | 98.0 | 93.0 | 237 to 238 | – | – | – | –
11 | Cc1cccc(C(=O)N/N=C/c2cc(C(F)(F)F)cc(C(F)(F)F)c2O)c1 [Example 332] | 2 | 93.9 | 89.0 | 210 to 213 | – | – | – | –
12 | O=C(N/N=C/c1cccc(Cl)c1O)c1ccccc1C(F)(F)F [Example 432] | 0 | 95.9 | 72.0 | 118 to 121 | – | – | – | –
13 | COc1ccc(/C(C)=N/NC(=O)c2cccc(C)c2)c(O)c1OC [Example 553] | 0 | 93.2 | 88.0 | 158 to 162 | – | – | – | –
14 | COc1cc(O)c(/C(C)=N/NC(=O)c2ccc(C)cc2)c(OC)c1 [Example 566] | 6.8 | 95.9 | 70.0 | 177 to 184 | – | – | – | –
15 | Cc1ccc(C(=O)N/N=C/c2c(O)cccc2Cl)c(O)c1 [Example 408] | 8.4 | 79.7 | 94.0 | 273 to 276 | – | – | – | –
16 | C/C(=N\NC(=O)c1cccc(C)c1O)c1cc(Cl)cc(Cl)c1O [Example 565] | 12.2 | 97.4 | 98.0 | 278 to 279 | – | – | – | –
17 | C/C(=N\NC(=O)c1ccccc1Cl)c1cc(C)ccc1O [Example 315] | 2.7 | 95.8 | 18.0 | 154 to 158 | – | – | – | –

Row | SMILES | inhibition of growth at 0.05 µg/mL [1, 2] [%] | LEPTNO % Inhn. Plus Copper Observed [1, 3] [%] | TLB % Control (Phytophthora infestans; [4]) [%] | melting point [°C] | LEPTNO % Inhn. Minus Copper Observed [1, 5] [%] | LEPTNO % Inhn. Plus Copper Observed [1, 6] [%] | TLB % Control (Phytophthora infestans; [7]) [%] | inhibition of growth at 0.05 µg/mL [1, 5] [%]
18 | C/C(=N\NC(=O)c1cccc(C)c1)c1cc(Br)ccc1O [Example 289] | – | – | – | 227 to 233 | – | 97.6 | 45.0 | 0
19 | Cc1cccc(C(=O)N/N=C/c2cc(Cl)cc(C(F)(F)F)c2O)c1 [Example 376] | 13.6 | 96.5 | 98.0 | 199 to 201 | – | – | – | –
20 | C/C(=N\NC(=O)c1ccccc1O)c1cc(Cl)cc(Cl)c1O [Example 471] | 7.9 | 97.8 | 83.0 | 306 to 308 | – | – | – | –
21 | COc1ccc(O)c(C(=O)N/N=C/c2cc(Cl)cc(Cl)c2O)c1 [Example 487] | 11.2 | 93.9 | 100.0 | 250 to 252 | – | – | – | –
22 | Cc1cccc(/C=N/NC(=O)c2ccccc2)c1O [Example 232] | – | – | – | 186 to 188 | – | 97.5 | 57.6 | 2.3
23 | O=C(N/N=C/c1cccc(C(F)(F)F)c1O)c1ccccc1C(F)(F)F [Example 353] | 0 | 94.8 | 81.0 | 169 to 171 | – | – | – | –
24 | O=C(N/N=C/c1c(O)cc(C(F)(F)F)cc1C(F)(F)F)c1ccccc1 [Example 276] | – | – | – | 144 to 193 | – | 97.8 | 71.2 | 5.5
25 | COc1cccc(/C(C)=N/NC(=O)c2ccccc2O)c1O [Example 468] | 6.2 | 98.1 | 92.0 | 255 to 257 | – | – | – | –
26 | COc1cccc(/C(C)=N/NC(=O)c2ccc(Br)cc2)c1O [Example 465] | 1.7 | 96.5 | 93.0 | 176 to 177 | – | – | – | –
27 | C/C(=N\NC(=O)c1ccccc1C)c1cccc([N+](=O)[O-])c1O [Example 269] | – | – | – | 193 to 196 | – | 98.8 | 21.0 | 0
28 | C/C(=N\NC(=O)c1cccc(C)c1)c1cc(C(F)(F)F)ccc1O [Example 529] | 15.3 | 97.7 | 46.0 | 235 to 238 | – | – | – | –
29 | O=C(N/N=C/c1cc(C(F)(F)F)cc(Cl)c1O)c1ccc(Cl)cc1 [Example 326] | 6.9 | 95.6 | 93.0 | 208 to 210 | – | – | – | –
30 | C/C(=N\NC(=O)c1ccccc1)c1cc(F)cc(F)c1O [Example 572] | 2.5 | 97.4 | 94.0 | 222 to 225 | – | – | – | –
31 | O=C(N/N=C/c1ccc(Cl)cc1O)c1cccc([N+](=O)[O-])c1 [Example 393] | 4.3 | 96.1 | 73.0 | 233 to 238 | – | – | – | –
32 | CC(C)(C)/C(=N\NC(=O)c1ccccc1)c1ccccc1O [Example 592] | 0 | 25.4 | 1.4 | 241 to 243 | – | – | – | –
33 | C/C(=N\NC(=O)c1ccc(Cl)cc1O)c1cc(Cl)cc(Cl)c1O [Example 489] | 15.8 | 97.8 | 85.0 | 314 to 317 | – | – | – | –
